Consider 32 molecules from patent publication US20240376090A1, “ISOXAZOLE DERIVATIVES AS MODULATORS OF THE 5-HT2A SEROTONIN RECEPTOR USEFUL FOR THE TREATMENT OF DISORDERED RELATED THERETO” (Arena Pharmaceuticals, Inc., priority 2020, published 2024).

Sequence of 5-HT2A receptor (P28223 whole entry): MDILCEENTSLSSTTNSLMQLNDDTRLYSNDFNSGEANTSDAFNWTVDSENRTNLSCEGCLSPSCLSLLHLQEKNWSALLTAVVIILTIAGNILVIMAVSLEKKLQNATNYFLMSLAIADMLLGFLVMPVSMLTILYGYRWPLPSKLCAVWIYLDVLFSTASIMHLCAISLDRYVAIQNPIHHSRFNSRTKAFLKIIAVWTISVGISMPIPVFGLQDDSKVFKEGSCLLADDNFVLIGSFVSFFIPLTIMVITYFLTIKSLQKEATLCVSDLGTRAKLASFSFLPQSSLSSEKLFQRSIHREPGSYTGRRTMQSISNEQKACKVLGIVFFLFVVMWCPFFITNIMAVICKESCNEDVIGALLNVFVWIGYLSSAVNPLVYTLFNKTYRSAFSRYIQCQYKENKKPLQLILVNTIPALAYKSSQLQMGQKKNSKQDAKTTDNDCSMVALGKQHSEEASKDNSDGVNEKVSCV

This assay concerns the target 5-HT2A receptor (Homo sapiens (Human), UniProt P28223). The assay can be described thus: Radioligand binding assay ([3H]5-HT competition), 5-HT2A. As to conditions: [3H]5-HT radioligand, membranes of HEK293 cells expressing recombinant 5-HT2A; Ki from IC50 by Cheng-Prusoff; read-out: 5-HT2A serotonin binding Ki value. As for the experimental part: Competition binding experiments consisted of addition of 5 μL of serially diluted test compound, 50 μL of radioligand stock diluted in Assay Buffer (20 mM HEPES, pH 7.4, 10 mM MgCl2), and 145 μL of diluted membrane expressing the receptor of interest to 96-well microtiter plates, which were then incubated for one hour at room temperature. Assay incubations were terminated by rapid filtration through Perkin Elmer GF/C filtration plates under vacuum pressure using a 96-well Packard filtration apparatus, followed by washing the filter plates several times with ice cold Assay Buffer. Plates were then dried at 45° C. for a minimum of four hours. Finally, 25 μL of BetaScint scintillation cocktail was added to each well and the plates were counted in a Packard TopCount scintillation counter. In each competition study, test compounds were assayed at 10 concentrations with three replicates at each test concentration. Dose-response curves were constructed to determine IC50 values and these were converted to corresponding Ki values using the Cheng-Prusoff equation.
Turning to `Cc1noc(C)c1-c1cc(NC(=O)C2CC2)ccc1O[C@@H]1CCNC1` [Compound 181, (R)—N-(3-(3,5-dimethylisoxazol-4-yl)-4-(pyrrolidin-3-yloxy)phenyl)cyclopropanecarboxamide], the Ki (commonly a dissociation constant, usually derived from enzyme kinetics or from competition with a known ligand) is 10 nM.

As for `Cc1noc(C)c1-c1cc(NC(=O)c2cnoc2)ccc1OC[C@H]1CCCCN1` [Compound 182, N-[3-(3,5-dimethylisoxazol-4-yl)-4-[[(2R)-2-piperidyl]methoxy]phenyl]isoxazole-4-carboxamide], the Ki was 61.5 nM.

With `Cc1nocc1C(=O)Nc1ccc(OC[C@H]2CCCCN2)c(-c2c(C)noc2C)c1` [Compound 183, (R)—N-(3-(3,5-dimethylisoxazol-4-yl)-4-(piperidin-2-ylmethoxy)phenyl)-3-methylisoxazole-4-carboxamide], the Ki was found to be 5.09 nM.

Take `Cc1noc(C)c1-c1cc(NC(=O)c2cnoc2C)ccc1OC[C@H]1CCCCN1` [Compound 184, (R)—N-(3-(3,5-dimethylisoxazol-4-yl)-4-(piperidin-2-ylmethoxy)phenyl)-5-methylisoxazole-4-carboxamide]: the Ki came to 10.5 nM.

For the molecule `Cc1noc(C)c1-c1cc(NC(=O)c2ncoc2C)ccc1OC[C@H]1CCCCN1` [Compound 185, (R)—N-(3-(3,5-dimethylisoxazol-4-yl)-4-(piperidin-2-ylmethoxy)phenyl)-5-methyloxazole-4-carboxamide], the Ki turned out to be 8.77 nM.

`Cc1noc(C)c1-c1cc(NC(=O)c2cnsc2)ccc1OC[C@H]1CCCCN1` [Compound 186, (R)—N-(3-(3,5-dimethylisoxazol-4-yl)-4-(piperidin-2-ylmethoxy)phenyl)isothiazole-4-carboxamide]: the Ki was 7.71 nM.

`Cc1noc(C)c1-c1cc(NC(=O)c2ncsc2C)ccc1OC[C@H]1CCCCN1` [Compound 188, (R)—N-(3-(3,5-dimethylisoxazol-4-yl)-4-(piperidin-2-ylmethoxy)phenyl)-5-methylthiazole-4-carboxamide]: the Ki is 4.5 nM.

Take `Cc1noc(C)c1-c1cc(NC(=O)[C@@H]2C[C@H]2F)ccc1OC[C@H]1CCCCN1` [Compound 190, (1S,2R)—N-(3-(3,5-dimethylisoxazol-4-yl)-4-(((R)-piperidin-2-yl)methoxy)phenyl)-2-fluorocyclopropane-1-carboxamide]: the Ki was determined as 1.19 nM.

`Cc1ncsc1C(=O)Nc1ccc(OC[C@H]2CCCCN2)c(-c2c(C)noc2C)c1` [Compound 193, (R)—N-(3-(3,5-dimethylisoxazol-4-yl)-4-(piperidin-2-ylmethoxy)phenyl)-4-methylthiazole-5-carboxamide]: the Ki is 2.69 nM.

In the case of `Cc1nc(C)c(C(=O)Nc2ccc(OC[C@H]3CCCCN3)c(-c3c(C)noc3C)c2)s1` [Compound 194, (R)—N-(3-(3,5-dimethylisoxazol-4-yl)-4-(piperidin-2-ylmethoxy)phenyl)-2,4-dimethylthiazole-5-carboxamide], the Ki came to 32.2 nM.

As to `Cc1cnoc1C(=O)Nc1ccc(OC[C@H]2CCCCN2)c(-c2c(C)noc2C)c1` [Compound 195, (R)—N-(3-(3,5-dimethylisoxazol-4-yl)-4-(piperidin-2-ylmethoxy)phenyl)-4-methylisoxazole-5-carboxamide], the Ki is 15.2 nM.

Regarding `Cc1noc(C)c1-c1cc(NC(=O)C(C)(C)F)ccc1OC[C@H]1CCCCN1` [Compound 199, N-[3-(3,5-dimethylisoxazol-4-yl)-4-[[(2R)-2-piperidyl]methoxy]phenyl]-2-fluoro-2-methyl-propanamide], the Ki was 35.6 nM.

As for `Cc1noc(C)c1-c1cc(NC(=O)C2(CF)CC2)ccc1OC[C@H]1CCCCN1` [Compound 200, (R)—N-(3-(3,5-dimethylisoxazol-4-yl)-4-(piperidin-2-ylmethoxy)phenyl)-1-(fluoromethyl)cyclopropane-1-carboxamide], the Ki worked out at 9.08 nM.

Consider `Cc1noc(C)c1-c1cc(NC(=O)C[C@@H]2CCOC2)ccc1OC[C@H]1CCCCN1` [Compound 201, N-(3-(3,5-dimethylisoxazol-4-yl)-4-(((R)-piperidin-2-yl)methoxy)phenyl)-2-((S)-tetrahydrofuran-3-yl)acetamide], for which the Ki came out at 11.9 nM.

Turning to `Cc1noc(C)c1-c1cc(NC(=O)C2CC23CCOCC3)ccc1OC[C@H]1CCCCN1` (stereo partly drawn) [Compound 203, N-(3-(3,5-dimethylisoxazol-4-yl)-4-(((R)-piperidin-2-yl)methoxy)phenyl)-6-oxaspiro[2.5]octane-1-carboxamide], the Ki was 27.8 nM.

For `COCC1(C(=O)Nc2ccc(OC[C@H]3CCCCN3)c(-c3c(C)noc3C)c2)CC1` [Compound 204, (R)—N-(3-(3,5-dimethylisoxazol-4-yl)-4-(piperidin-2-ylmethoxy)phenyl)-1-(methoxymethyl)cyclopropane-1-carboxamide], the Ki was determined as 25 nM.

`COC1(CC(=O)Nc2ccc(OC[C@H]3CCCCN3)c(-c3c(C)noc3C)c2)CCC1` [Compound 205, (R)—N-(3-(3,5-dimethylisoxazol-4-yl)-4-(piperidin-2-ylmethoxy)phenyl)-2-(1-methoxycyclobutyl)acetamide]: the Ki turned out to be 105 nM.

For the molecule `Cc1noc(C)c1-c1cc(NC(=O)C(F)c2ccccc2)ccc1OC[C@H]1CCCCN1` (stereo partly drawn) [Compound 206, N-(3-(3,5-dimethylisoxazol-4-yl)-4-(((R)-piperidin-2-yl)methoxy)phenyl)-2-fluoro-2-phenylacetamide], the Ki was determined as 3.4 nM.

With `Cc1nc(C)c(C(=O)Nc2ccc(OC[C@H]3CCCCN3)c(-c3c(C)noc3C)c2)o1` [Compound 207, (R)—N-(3-(3,5-dimethylisoxazol-4-yl)-4-(piperidin-2-ylmethoxy)phenyl)-2,4-dimethyloxazole-5-carboxamide], the Ki was 235 nM.

With `Cc1cnn(C)c1C(=O)Nc1ccc(OC[C@H]2CCCCN2)c(-c2c(C)noc2C)c1` [Compound 208, (R)—N-(3-(3,5-dimethylisoxazol-4-yl)-4-(piperidin-2-ylmethoxy)phenyl)-1,4-dimethyl-1H-pyrazole-5-carboxamide], the Ki is 9.66 nM.

`CCc1cc(C(=O)Nc2ccc(OC[C@H]3CCCCN3)c(-c3c(C)noc3C)c2)n(C)n1` [Compound 209, (R)—N-(3-(3,5-dimethylisoxazol-4-yl)-4-(piperidin-2-ylmethoxy)phenyl)-3-ethyl-1-methyl-1H-pyrazole-5-carboxamide]: the Ki turned out to be 36.3 nM.

For the molecule `Cc1nc(C(=O)Nc2ccc(OC[C@H]3CCCCN3)c(-c3c(C)noc3C)c2)c(C)s1` [Compound 210, (R)—N-(3-(3,5-dimethylisoxazol-4-yl)-4-(piperidin-2-ylmethoxy)phenyl)-2,5-dimethylthiazole-4-carboxamide], the Ki amounted to 86.3 nM.

Regarding `Cc1noc(C)c1-c1cc(NC(=O)c2cnn(C)c2C)ccc1OC[C@H]1CCCCN1` [Compound 211, (R)—N-(3-(3,5-dimethylisoxazol-4-yl)-4-(piperidin-2-ylmethoxy)phenyl)-1,5-dimethyl-1H-pyrazole-4-carboxamide], the Ki was found to be 40.9 nM.

Turning to `Cc1noc(C)c1-c1cc(NC(=O)c2ncnn2C)ccc1OC[C@H]1CCCCN1` [Compound 212, (R)—N-(3-(3,5-dimethylisoxazol-4-yl)-4-(piperidin-2-ylmethoxy)phenyl)-1-methyl-1H-1,2,4-triazole-5-carboxamide], the Ki was determined as 38.6 nM.

For `Cc1noc(C)c1-c1cc(NC(=O)Cc2nccs2)ccc1OC[C@H]1CCCCN1` [Compound 213, (R)—N-(3-(3,5-dimethylisoxazol-4-yl)-4-(piperidin-2-ylmethoxy)phenyl)-2-(thiazol-2-yl)acetamide], the Ki was determined as 4.73 nM.

Turning to `Cc1cnsc1C(=O)Nc1ccc(OC[C@H]2CCCCN2)c(-c2c(C)noc2C)c1` [Compound 214, (R)—N-(3-(3,5-dimethylisoxazol-4-yl)-4-(piperidin-2-ylmethoxy)phenyl)-4-methylisothiazole-5-carboxamide], the Ki is 3.05 nM.

Consider `Cc1nnsc1C(=O)Nc1ccc(OC[C@H]2CCCCN2)c(-c2c(C)noc2C)c1` [Compound 215, (R)—N-(3-(3,5-dimethylisoxazol-4-yl)-4-(piperidin-2-ylmethoxy)phenyl)-4-methyl-1,2,3-thiadiazole-5-carboxamide], for which the Ki turned out to be 18.4 nM.

For the molecule `Cc1nc(C(=O)Nc2ccc(OC[C@H]3CCCCN3)c(-c3c(C)noc3C)c2)c(C)o1` [Compound 216, (R)—N-(3-(3,5-dimethylisoxazol-4-yl)-4-(piperidin-2-ylmethoxy)phenyl)-2,5-dimethyloxazole-4-carboxamide], the Ki worked out at 298 nM.

On to `COc1ccc(CC(=O)Nc2ccc(OC[C@H]3CCCCN3)c(-c3c(C)noc3C)c2)cc1` [Compound 224, (R)—N-(3-(3,5-dimethylisoxazol-4-yl)-4-(piperidin-2-ylmethoxy)phenyl)-2-(4-methoxyphenyl)acetamide], for which the Ki worked out at 1.53 nM.

`Cc1noc(C)c1-c1cc(NC(=O)Cc2ccc(F)cn2)ccc1OC[C@H]1CCCCN1` [Compound 227, (R)—N-(3-(3,5-dimethylisoxazol-4-yl)-4-(piperidin-2-ylmethoxy)phenyl)-2-(5-fluoropyridin-2-yl)acetamide]: the Ki worked out at 91.6 nM.

In the case of `COC1(CC(=O)Nc2ccc(OC[C@H]3CCCCN3)c(-c3c(C)noc3C)c2)CC1` [Compound 228, (R)—N-(3-(3,5-dimethylisoxazol-4-yl)-4-(piperidin-2-ylmethoxy)phenyl)-2-(1-methoxycyclopropyl)acetamide], the Ki came out at 66.4 nM.

Regarding `Cc1nc(C(C)C)sc1C(=O)Nc1ccc(OC[C@H]2CCCCN2)c(-c2c(C)noc2C)c1` [Compound 231, (R)—N-(3-(3,5-dimethylisoxazol-4-yl)-4-(piperidin-2-ylmethoxy)phenyl)-2-isopropyl-4-methylthiazole-5-carboxamide], the Ki is 16.8 nM.
